Where a name gives a salt, the structure may show the parent alone.
Test: Waving efficiency at various pH, compounds (i) and (ii) tested singly (FIG. 1)
Conditions: agent contains the compound at 2% by mass in terms of thioglycolic acid
Source text: The hair processing agents tested herein contain the compound at 2% by mass in terms of thioglycolic acid. […] Consequently, the compounds (i) and (ii) in combination provide a permanent waving performance over a wide pH range.

SMILES	Changes of waving efficiency at various pH (FIG. 1)
O=C1OCCC1S (centres unmarked) [Synthetic Example 1, 2-mercapto-4-butyrolactone]	high waving efficiency in an acidic to neutral pH range
NCCS [compound (ii), cysteamine hydrochloride]	low waving efficiency at acidic pH, but the waving efficiency linearly increases with the pH increase
